Measured values from patent publication US8853215B2, “Derivatives of N-acyl-N′-phenylpiperazine useful (inter alia) for the prophylaxis or treatment of diabetes” (Takeda Pharmaceutical Company Limited, priority 2009, dated 2014).

Key:
human RBP4 = human RBP4 (Homo sapiens (Human), UniProt P02753); assay: Binding assay by Retinol-RBP4-TTR ELISA
Summary of the method: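 Biotinylated human TTR was captured on streptavidin plates, then His-tagged human RBP4 was added with compound premixed with 50 nM retinol (8 doses). Binding ran 2 h at room temperature in 50 mM Tris-HCl, 150 mM NaCl, 0.005% Tween 20, 1 mM DTT, 0.1% BSA, read by luminescence. Inhibition was scaled between retinol+DMSO and retinol-free controls, and IC50 fitted.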

RBP4 = RBP4 (Rattus norvegicus (Rat), UniProt P04916); assay: Single administration test in Wistar fatty rats, plasma RBP4 by ELISA; assay type: in vivo; conditions: male Wistar fatty rats, 10 mg/kg oral single dose, mean±SD
Description: The action of the compounds of the present invention to lower plasma RBP4 level was evaluated using the animal model shown below.
Male Wistar fatty rats (fa/fa) were bred in Takeda Pharmaceutical Company Limited and maintained on normal diet (CE2, CLAE Japan, Inc.) and tap water. Animals were housed in a temperature-controlled room adjusted to a 12-hour light/12-hour dark cycle beginning at 7:00 and 19:00, respectively. All procedures were conducted according to the experimental animal care use committee of Takeda Pharmaceutical Company.
Male 13-43-week-old Wistar fatty rats were divided into groups randomly. Compounds were suspended in 0.5% (w/v) methylcellulose in water and given orally to Wistar fatty rats at a dose of 10 mg/10 mL/kg of body weight (3-5 rats per group). Blood samples were obtained from tail vein with sodium heparin as an anticoagulant at time 0 hr (just before the administration), 4 hr, 7 hr, and 24 hr after the administration, followed by plasma separation by centrifugation. Plasma RBP4 levels were measured by enzyme-linked immunosorbent assay described in the following section.
Plasma samples were analyzed in duplicate for RBP4 by an enzyme-linked immunosorbent assay. Mouse recombinant RBP4 (Takeda Pharmaceutical Company Limited) was used as standards, and the assay range was 0.313-20 ng/ml. Samples were diluted 10,000-fold with phosphate-buffered saline (PBS) (Sigma) containing 10% (w/v) BlockAce (Dainippon Sumitomo Pharma Co., Ltd). Rabbit anti-RBP4 polyclonal antibody (100 μL/well of 50 μg/mL, Hokudo Co, Ltd) was incubated in a 96-well plate (Nalge Nunc International K.K.) for overnight at 4° C. Subsequently, the plates were washed with PBS-T (Wako Pure Chemical Industries, Ltd.) and blocked with PBS containing 25% BlockAce for 1 hr at room temperature. After another washing with PBS-T, samples and standards were applied to the well, and the plates were incubated for 2 hr at room temperature. After a washing the wells, peroxidase-labeled (Dojindo Laboratories) anti-RBP4 (100 μL/well) was added to the wells, and then the plates were incubated for 1 hr at room temperature. After a final washing with PBS-T, substrate solution 3,3,5,5-tetramethylbenzidine (Sigma) was added to the wells, and the plates were placed in the dark for 5-20 min at room temperature. The reaction was stopped with 0.5 M sulphuric acid and the optical density was measured with a spectrophotometer at 450 nm. The changes in plasma RBP4 levels were expressed as % of initial/Control. All data are presented as mean±SD.

## CC(C)(C)c1ccccc1N1CCN(C(=O)C(=O)O)CC1 [Example 44, 2-[4-(2-tert-Butylphenyl)piperazin-1-yl]-2-oxoacetic acid]
Human RBP4; at 10 μM compound, read-out: human RBP4 binding inhibitory activity(% at 10 μM)
  inhibition at 10 µM: 100%
Human RBP4; retinol 50 nM, His-tagged human RBP4, biotinylated human TTR, read-out: human RBP4 binding inhibitory activity (IC50 nM)
  IC50: 38 nM
RBP4; 0 hr (just before the administration)
  RBP4 (% of initial/Control) 0 hr: 100.0 ± 13.8 % of initial/Control
RBP4; 4 hr after administration
  RBP4 (% of initial/Control) 4 hr: 59.6 ± 14.5 % of initial/Control
RBP4; 7 hr after administration
  RBP4 (% of initial/Control) 7 hr: 58.5 ± 5.6 % of initial/Control
RBP4; 24 hr after administration
  RBP4 (% of initial/Control) 24 hr: 106.0 ± 16.1 % of initial/Control
